Measured values reported in PubChem BioAssay (NCI).
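Each compound was tested at five concentrations against cells in 96-well plates for 48 hours. The concentration for 50% growth inhibition is given as GI50. At the TGI there is no net growth.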

Tests used:
Test in all cases: NCI tumour cell line growth inhibition, 48 h
A549 NSCLC = system: A549 NSCLC
CAKI-1 renal = system: CAKI-1 renal
EKVX NSCLC = system: EKVX NSCLC
K-562 leukemia = system: K-562 leukemia
LOX IMVI melanoma = system: LOX IMVI melanoma
M14 melanoma = system: M14 melanoma
MOLT-4 leukemia = system: MOLT-4 leukemia
NCI-H23 lung = system: NCI-H23 lung
NCI-H522 lung = system: NCI-H522 lung
SK-MEL-2 melanoma = system: SK-MEL-2 melanoma

Structure (SMILES)	GI50 (A549 NSCLC) [nM]	TGI (A549 NSCLC) [µM]	GI50 (CAKI-1 renal) [nM]	TGI (CAKI-1 renal) [µM]	GI50 (EKVX NSCLC) [nM]	TGI (EKVX NSCLC) [µM]	GI50 (K-562 leukemia) [nM]	TGI (K-562 leukemia) [µM]	GI50 (LOX IMVI melanoma) [nM]	TGI (LOX IMVI melanoma) [µM]	GI50 (M14 melanoma) [nM]	TGI (M14 melanoma) [µM]	GI50 (MOLT-4 leukemia) [nM]	TGI (MOLT-4 leukemia) [µM]	GI50 (NCI-H23 lung) [nM]	TGI (NCI-H23 lung) [µM]	GI50 (NCI-H522 lung) [nM]	TGI (NCI-H522 lung) [µM]	GI50 (SK-MEL-2 melanoma) [µM]	TGI (SK-MEL-2 melanoma) [µM]
CCN1C(=O)N(CC)C2C1NC(=S)N2/N=C/C=C/c1ccccc1 (configuration not stated)	176	> 100	71.9	> 100	634	> 100	49.5	> 100	154	> 100	88.1	> 100	277	> 100	546	> 100	48.6	4.45	0.661	> 100
CCCCCCCCCC1CC(=O)OC23CCCC(=O)C12O3 (configuration not stated)		> 100		> 100		> 100		> 100		> 100		> 100		71.4		> 100		> 100		> 100
O=[N+]([O-])c1cccnc1S(=O)(=O)c1ccccc1		40.4		6.98		14.5		> 43.8		15.7		22.5		> 25.7		30.3		2.82		31.1
Oc1cn(-c2ccc(Cl)cc2)nc1-c1n[nH]c(=S)n1-c1ccc(F)cc1	13200	56	40500	> 100	27500	91.1	12600	> 100	16800	43	15100	45	14700	> 100	15700	33	18000	64.8	34	> 100
CC(C)N(C(=O)C12C3C4C1C1C4(C#N)C3C12C(=O)O)C(C)C (configuration not stated)		> 100		> 100		> 100		> 100		> 100		> 100		> 100		> 100		> 100		> 100
CC(=O)Nc1cccc(C#Cc2cncnc2Nc2ccc(OCc3cccc(F)c3)c(Cl)c2)c1	5870	> 25	3300	> 25	2010	> 21.5	8960	> 25	8120	> 25	10800	> 25	6820	> 25	10600	> 25	4470	23.9	6.43	> 22.8
Nc1c(C(=O)Nc2ccccc2)sc2nc3c(cc12)C(=O)CCC3	436	> 100	485	> 100	627	> 100	287	> 100		> 100	401	> 32.9		> 100	833	> 100	215	1.29	0.35	
OCC1OC(OC2(CO)OC(CO)C(O)C2O)C(O)C(O)C1O (configuration not stated)	> 100000	> 100	> 100000	> 100	> 100000	> 100	> 100000	> 100	> 100000	> 100	> 100000	> 100	> 100000	> 100	> 100000	> 100	> 100000	> 100	> 100	> 100
Nc1nc(-c2ccccc2)c(CC(=O)O)s1		> 100		> 100		> 100		> 100		> 100		> 100		> 100				> 100		> 100
N#CN1CC[C@H](C(=O)Nc2ncc(-c3ccccc3)s2)C1	1900	8.61	1650	4.26	1430	3.28	455	11	267	1.65	495	2.22	309	2.04	705	6.46	205	0.547	0.274	0.726
CN(C)CCNC(=O)Nc1ccc(N(C)c2ccnc(Nc3ccc(CS(C)(=O)=O)cc3)n2)cc1	> 25000	> 25	> 25000	> 25	> 25000	> 25	> 25000	> 25	> 25000	> 25	> 25000	> 25	> 25000	> 25	> 25000	> 25	> 16900	> 25	> 25	> 25
O=C1C=CC2(O)OCC3C=C4O[C@@H]5OC6(CCCCC6)O[C@@H]5C4[C@@H]2[C@@H]13 (some centres not stated)		> 100		48.9		78.7		44.8		> 100		43.8		70.5		67.3		27.9		> 100
OCCNc1nc2ccccc2c2[nH]c3ccccc3c12	394	2.19	529	8.9	2140	15.5	440	> 26.3	419	1.8	699	2.03	240	1.48	496	1.88	360	1.73	0.907	3.29
O=c1[nH]c(=S)[nH]c(O)c1/C=C1\C=Nc2ccccc21	37200	> 100	3610	20.3	7140	32.8	8040	> 100	2460	11.1	10600	35.1	2510	8.02	12400	44.2	16900	54.4	19.5	59
Cn1cc(-c2ccc3ncc(-c4ccc(CC(=O)Nc5cc(C(C)(C)C)nn5C)cc4)cc3c2)cn1	1440	> 20	541	7.15	1880	> 20	1130	> 20	1230	> 20	984	> 20	706	3.25	1100	> 20	995	9.06	0.789	7.14
O=C(CI)NC(=O)NC(=O)NCc1ccccc1	18700	42.8	1690	3.12	17500	39.6	1160	4.05	1440	3	2890	10.8	969	3.15	4320	19.5	1620	3.52	7.5	21.6
C/C(=N\NC(=S)N1CCC1)c1ccccn1	52.7	37.5		75.3		48.6	3.93	> 100	5.25	15.9	22.9	1.84	6.01	> 10.5	6.22	39.7	9.76	> 45.9		33.3
COc1ccc(-c2cnc(-c3ccncc3-c3cccc(OC)c3)o2)cc1	40.9	11.3	866	33	1040	25.1	28.8	12.8	59.9	15.5	30.4	14.2	61.7	17.2	38.3	13	19	0.0615	0.0397	15.2
O=C(O)c1ccccc1C(=O)c1ccco1		> 100		> 100		> 100		> 100		> 100		> 100		> 100		> 100		> 100		> 100
COC(=O)C1CCC(C)CC1=O (configuration not stated)		> 100		> 100		> 100		> 100		> 100		> 100		> 100		> 100		> 100		> 100
O=C([O-])c1ccc([I+]c2ccccc2)cc1		> 100		> 100		> 100		> 100		> 100		> 100		> 100		> 100		> 100		> 100
CN(C)CCCOc1ccc(NC2=C(Cl)C(=O)C(Nc3ccc(OCCCN(C)C)cc3)=C(Cl)C2=O)cc1	731	2.12	1910	3.53	582	1.26	276	0.798	422	0.902	1450	2.9	325	2.38	292	1.02	236	0.602	1.66	3.31
NC(=O)c1nc(-c2c(F)cccc2Cl)oc1Nc1ccc(C(=O)N2CCOCC2)cc1	936	> 100	1440	> 100	12200	> 100	4660	> 100	914	5.61	13700	> 100	2030	37.7	2910	> 100	2110	57.1	12.7	58.6
NC1=NC(c2ccccc2Cl)c2c(n[nH]c2N)N1 (configuration not stated)	6960	> 100	10900	> 100	44200	> 100	4520	> 100	2980	> 100	18100	> 100	22500	> 100	20300	> 100	19600	> 100	65.3	> 100
CN(C)C1C(=O)C(C(N)=O)=C(O)C2(O)C(=O)C3=C(O)c4c(O)cccc4C(C)(O)C3CC12.[Cl][Sb]([Cl])[Cl] (configuration not stated)	3470	13.8	1830	4.22	2960	8.01	3260	11.2	2630	12.3	3820	16.6	3910	11	3300	12.2	1860	4.1	2.99	8.04
COS(=O)c1cc(Cl)cc(Cl)c1OC(=O)CSSCC(=O)Oc1c(Cl)cc(Cl)cc1S(=O)OC (configuration not stated)		47.2		63.1		41.9		51.1		43.8		46.3		46.2		27.8		30.2		51.4
CCOC(=O)C1=C(C)N(NC(N)=O)C2(N)N(NC(N)=O)C(C)=C(C(=O)OCC)C12C#N (configuration not stated)		> 100		> 100		> 100		> 100		> 100		> 100		> 100				> 100		> 100
Cc1cc(OC2OC(CO)C(O)C(O)C2O)ccc1O (configuration not stated)		> 100		> 100		> 100		> 100		> 100		> 100		> 100		> 100		> 100		> 100
S=C(Sc1ccc(Cl)cc1)Sc1ccc(Cl)cc1	2990	13.7	2960	10.3	3030	13.6	1870	7.63	1130	2.37	2030	3.95	1270	4.53	1750	3.78	1110	2.33	4.61	16.7
C#COc1cccc(Nc2ncnc3cc(NC(=O)[C@@H](C)Cl)ccc23)c1	9860	> 62.5	10200	> 62.5	28700	> 62.5	2560	> 62.5	4880	> 62.5	3920	> 62.5	4290	> 62.5	17200	> 62.5	3960	40.8	5.24	> 62.5
